Results: article PMC6631119, “Nasal Administration and Plasma Pharmacokinetics of Parathyroid Hormone Peptide PTH 1-34 for the Treatment of Osteoporosis” (Pharmaceutics, 2019)
Like-named read-outs stand apart in the source and are kept apart here.

Assay: Ovine plasma pharmacokinetics of PTH 1-34 (four-way randomised cross-over, ELISA)
Format: in vivo
Conditions: sheep; for half-life: read-out: t1/2 (mean); for bioavailability: relative to intravenous injection, read-out: Fab
Experimental: Research was conducted in accordance with the requirements of the Animals (Scientific Procedures) Act 1986 (ASPA) under Procedural Project Licence (PPL) number 40/3552 (Protocol 19b/1), between 26 April 2016 and 24 May 2016, at the University of Nottingham, Nottingham, UK (Procedural Establishment Licence (PEL) number PCD 40/2406). The overarching protocol (as detailed in the PPL) was subject to full review by the Animal Welfare and Ethical Review Board (AWERB), and the study-specific protocol received a more localised review by the Named Animal Care and Welfare Officer (NACWO) and Named Veterinary Surgeon (NVS). This research governance is compliant with recommended ethical review processes. In view of the clinical data obtained in the present study, the pharmacokinetics of the Solutol® HS15-based formulation of PTH 1-34 were further investigated in sheep. The sheep study replicated the clinical trial in that it tested the nasal solution formulation of PTH 1-34 as well as a subcutaneous injection, but also evaluated pharmacokinetics of PTH 1-34 following intravenous injection and an intranasal PTH1-34 dry powder formulation.
The study was conducted according to a four-way randomised cross-over study in four (Mule crossbred) female sheep (obtained from a reputable commercial supplier). The sheep were group housed in a heat and ventilation air conditioned (HVAC) facility for the duration of the study, and were uniquely identified by a combination of ear tag and electronic transponder. On arrival, the animals were also randomly assigned a unique identifier by the facilities Research Animal Facility Management system (LabTracks, Locus Technology Inc., Manchester, MD, USA) and an abbreviated study number (1, 2, 3 and 4). To aid identification during the study, the fleece of each animal was marked with the abbreviated study number by spraying with a commercial stockmarker (dye). The animals were acclimatised for 17 days prior to initiation of treatments. The animals were subject to a health inspection by the NVS prior to and after use in the study, and were monitored during the study by the PPL holder and facility personnel supported by the NACWO, NVS and University of Nottingham personnel. Animals were weighed weekly during the study (Supplementary Materials: Section S3).
Administration of the PTH 1-34 was either as an intranasal liquid, intranasal dry powder, subcutaneous injection or intravenous injection. The treatments were randomised according to a Latin Square design using an online randomisation programme (Experimental Design Generator and Randomiser (Edgar) accessed from: http://www.edgarweb.org.uk/) with a minimum of a two day washout period between study legs. Immediately prior to dosing, the four sheep were sedated by an intravenous injection of ketamine hydrochloride (100 mg/mL solution administered at 2.25 mg/kg). This provided approximately 3 min sedation, during which period the sheep were dosed.
The formulations were prepared at Critical Pharmaceuticals’ Laboratories and transported, refrigerated, to the study facility. The intranasal liquid was administered via the right nostril using a LMA™ MAD110 Nasal™ Intranasal mucosal atomization device (MAD110) (Wolfe-Tory Medical, Inc., Salt Lake City, UT, USA) customised for use in sheep (to allow circumvention of the nostril and delivery of the dose to the respiratory mucosa of the nasal cavity). The intranasal powder formulation was also administered via the right nostril using a 5 mm oral/nasal tracheal tube Portex® Blueline 100/111/050, (Smiths Medical, Ashford, UK) and one-way bellows. The amount of powder administered to each animal, and thus the nominal dose of PTH 1-34, was determined by weighing the devices before and after the nasal administrations. The subcutaneous and intravenous bolus injections of PTH 1-34 were administered into the flank and a jugular vein, respectively. […]

[1] = female, Mule crossbred, 20 ug, four-way crossover, intravenous bolus (jugular vein), solution without Solutol HS15, 20 μg, plasma ELISA, mean ± SE, n = 4
[2] = female, Mule crossbred, inhaled or intranasal, 200 ug, four-way crossover, intranasal liquid with 7.5% w/v Solutol HS15, 200 μg, single nostril, plasma ELISA, mean ± SE, n = 4
[3] = female, Mule crossbred, inhaled or intranasal, 200 ug, four-way crossover, intranasal liquid with 7.5% w/v Solutol HS15, 200 μg, single nostril, plasma ELISA, mean ± SE, n = 4, not dose-corrected
[4] = female, Mule crossbred, inhaled or intranasal, four-way crossover, intranasal dry powder (1% PTH 1-34, 39% gellan gum, 40% Solutol HS15, 20% trehalose), nominal 200 μg (estimated 130 ± 15 μg), plasma ELISA, mean ± SE, n = 4
[5] = female, Mule crossbred, sc, 20 ug, four-way crossover, subcutaneous injection into flank, solution without Solutol HS15, 20 μg, plasma ELISA, mean ± SE, n = 3
[6] = four-way crossover, intranasal dry powder with Solutol HS15 and gellan gum, nominal 200 μg (estimated 130 ± 15 μg), plasma ELISA, n = 4
[7] = four-way crossover, intranasal liquid with 7.5% w/v Solutol HS15, 200 μg, single nostril, plasma ELISA, n = 4
[8] = four-way crossover, intravenous bolus (jugular vein), solution without Solutol HS15, 20 μg, plasma ELISA, n = 4
[9] = four-way crossover, subcutaneous injection into flank, solution without Solutol HS15, 20 μg, plasma ELISA, n = 3

Compound: CC[C@H](C)[C@H](NC(=O)[C@H](CCC(=O)O)NC(=O)[C@H](CO)NC(=O)[C@@H](NC(=O)[C@@H](N)CO)C(C)C)C(=O)N[C@@H](CCC(N)=O)C(=O)N[C@@H](CC(C)C)C(=O)N[C@@H](CCSC)C(=O)N[C@@H](Cc1cnc[nH]1)C(=O)N[C@@H](CC(N)=O)C(=O)N[C@@H](CC(C)C)C(=O)NCC(=O)N[C@@H](CCCCN)C(=O)N[C@@H](Cc1cnc[nH]1)C(=O)N[C@@H](CC(C)C)C(=O)N[C@@H](CC(N)=O)C(=O)N[C@@H](CO)C(=O)N[C@@H](CCSC)C(=O)N[C@@H](CCC(=O)O)C(=O)N[C@@H](CCCN=C(N)N)C(=O)N[C@H](C(=O)N[C@@H](CCC(=O)O)C(=O)N[C@@H](Cc1c[nH]c2ccccc12)C(=O)N[C@@H](CC(C)C)C(=O)N[C@@H](CCCN=C(N)N)C(=O)N[C@@H](CCCCN)C(=O)N[C@@H](CCCCN)C(=O)N[C@@H](CC(C)C)C(=O)N[C@@H](CCC(N)=O)C(=O)N[C@@H](CC(=O)O)C(=O)N[C@H](C(=O)N[C@@H](Cc1cnc[nH]1)C(=O)N[C@@H](CC(N)=O)C(=O)N[C@@H](Cc1ccccc1)C(=O)O)C(C)C)C(C)C [PTH 1-34, PTH 1-34 acetate]
- AUC(0-inf) [1]: 0.18 ng·h/mL
- AUC(0-t) [1]: 0.178 ng·h/mL
- Tmax [1]: 2 min
- half-life [1]: 75 ± 18.1 min
- Cmax (female, Mule crossbred, 20 ug, four-way crossover, intravenous bolus (jugular vein), solution without Solutol HS15, 20 μg, plasma ELISA, observed, mean ± SE, n = 4): 1.14 ± 0.198 ng/mL
- Cmax [2]: 0.047 ± 0.021 ng/mL
- Tmax [2]: 10 min
- AUC(0-inf) [3]: 0.0204 ng·h/mL
- AUC(0-t) [3]: 0.0182 ng·h/mL
- half-life [2]: 109 ± 43.7 min
- Cmax [4]: 0.008 ± 0.003 ng/mL
- Tmax [4]: 11 min
- half-life (female, Mule crossbred, inhaled or intranasal, four-way crossover, intranasal dry powder with Solutol HS15 and gellan gum, nominal 200 μg (estimated 130 ± 15 μg), plasma ELISA, mean ± SE, n = 4): 96 ± 29.8 min
- C0 (female, Mule crossbred, plasma, 20 ug, intravenous bolus 20 μg, back-extrapolated from the first two concentration values, mean ± SE, read-out: C0 (initial plasma concentration, extrapolation to t = 0)): 2.18 ± 0.696 ng/mL
- F rel (female, Mule crossbred, plasma, inhaled or intranasal, 200 ug, intranasal liquid with 7.5% w/v Solutol HS15, 200 μg, relative to subcutaneous injection, from AUCINF, dose-corrected, mean ± SE, n = 4, read-out: Frel): 1.4 ± 0.31%
- bioavailability (female, Mule crossbred, plasma, inhaled or intranasal, 200 μg, intranasal dry powder with Solutol HS15 and gellan gum, from AUCINF, corrected with estimated dose, mean ± SE, n = 4): 0.7 ± 0.03%
- F rel (female, Mule crossbred, plasma, inhaled or intranasal, 200 μg, intranasal dry powder with Solutol HS15 and gellan gum, relative to subcutaneous injection, from AUCINF, corrected with estimated dose, mean ± SE, n = 4, read-out: Frel): 1 ± 0.12%
- bioavailability (female, Mule crossbred, plasma, inhaled or intranasal, 200 ug, intranasal liquid with 7.5% w/v Solutol HS15, 200 μg, from AUCINF, dose-corrected, mean ± SE, n = 4): 1.1 ± 0.26%
- F rel (female, Mule crossbred, plasma, iv, 20 ug, intravenous bolus 20 μg, relative to subcutaneous injection, calculated for n = 3, read-out: Frel, n = 3): 140%
- F rel (female, Mule crossbred, plasma, iv, 20 ug, intravenous bolus 20 μg, relative to subcutaneous injection, from AUCINF, mean ± SE, n = 4 (average subcutaneous AUCINF used for Sheep 1), read-out: Frel): 156 ± 24%
- bioavailability (female, Mule crossbred, plasma, sc, 20 ug, subcutaneous injection into flank, 20 μg, from AUCINF, mean ± SE, n = 3): 77 ± 13.7%
- AUC(0-inf) [5]: 0.124 ng·h/mL
- AUC(0-t) [5]: 0.12 ng·h/mL
- Cmax [5]: 0.121 ± 0.047 ng/mL
- Tmax [5]: 12 min
- half-life [5]: 54 ± 8.7 min
- Tmax (median) [6]: 8 min
- t1/2 (median) [6]: 71 min
- Tmax (median) [7]: 10 min
- t1/2 (median) [7]: 77 min
- Tmax (mean) (four-way crossover, intravenous bolus (jugular vein), solution without Solutol HS15, 20 μg, plasma ELISA, mean ± SE, n = 4): 2 min
- Tmax (median) [8]: 2 min
- t1/2 (median) [8]: 78 min
- Tmax (median) [9]: 10 min
- t1/2 (median) [9]: 47 min
- Frel (intranasal liquid with 7.5% w/v Solutol HS15, 200 μg, relative to subcutaneous injection, from AUCINF, dose-corrected, mean ± SE, n = 4): 1.4 ± 0.3%
- time by which concentrations had returned to near baseline values (intranasal liquid with Solutol HS15, 200 μg, post-dose): ≤ 30 min
- time of return to near baseline (intravenous bolus 20 μg): 30 to 45 min
- Fab range (subcutaneous injection 20 μg, relative to intravenous, range): 55–108%
